Structures can show the parent of a compound that is named as a salt.
These molecules were tested against SARS-CoV-2 Mac1 (Severe acute respiratory syndrome coronavirus 2, UniProt P0DTD1) (assay: biochemical). Conditions: 100 µM; inhibitor.

Point of comparison: `C/C(=C\C(=O)OCCCCCCCCC(=O)O)C[C@@H]1OC[C@H](C[C@@H]2O[C@H]2[C@@H](C)[C@H](C)O)[C@@H](O)[C@H]1O` [Mupirocin], “%inhibition” value 0%. Against it:
- COc1c(N2C[C@@H]3CCCN[C@@H]3C2)c(F)cc2c(=O)c(C(=O)O)cn(C3CC3)c12 [Moxifloxacin HCl] — the same, 0%
- COc1c(N2C[C@@H]3CCCN[C@@H]3C2)c(F)cc2c(=O)c(C(=O)O)cn(C3CC3)c12 [Moxifloxacin] — higher, 6.66%
- C/C(=C\C(=O)OCCCCCCCCC(=O)O)C[C@@H]1OC[C@H](C[C@@H]2O[C@H]2[C@@H](C)[C@H](C)O)[C@@H](O)[C@H]1O [Mupirocin calcium] — higher, 3.887%
- COc1ccc2[nH]c([S@@+]([O-])Cc3ncc(C)c(OC)c3C)nc2c1 [NEXIUM (esomeprazole magnesium)] — higher, 21.09%
- COc1ccccc1N1CCN(CC(O)COc2cccc3ccccc23)CC1 (stereo not drawn) [Naftopidil DiHCl] — the same, 0%
- COc1ccccc1N1CCN(CC(O)COc2cccc3ccccc23)CC1 (stereo not drawn) [Naftopidil] — higher, 1.252%
- Cc1cn(-c2cc(NC(=O)c3ccc(C)c(Nc4nccc(-c5cccnc5)n4)c3)cc(C(F)(F)F)c2)cn1 [Nilotinib (AMN-107)] — higher, 40.49%
- Cc1cn(-c2cc(NC(=O)c3ccc(C)c(Nc4nccc(-c5cccnc5)n4)c3)cc(C(F)(F)F)c2)cn1 [Nilotinib hydrochloride] — higher, 3.764%
- COC(=O)c1ccc2c(C(=Nc3ccc(N(C)C(=O)CN4CCN(C)CC4)cc3)c3ccccc3)c(O)[nH]c2c1 [Nintedanib (BIBF 1120)] — higher, 17.91%
- COC(=O)c1ccc2c(C(=Nc3ccc(N(C)C(=O)CN4CCN(C)CC4)cc3)c3ccccc3)c(O)[nH]c2c1 [Nintedanib Ethanesulfonate Salt] — higher, 8.812%
- NC(=O)c1cccc2cn(-c3ccc([C@@H]4CCCNC4)cc3)nc12 [Niraparib (MK-4827) tosylate] — higher, 14.33%
- NC(=O)c1cccc2cn(-c3ccc([C@@H]4CCCNC4)cc3)nc12 [Niraparib (MK-4827)] — higher, 4.387%

Same assay, conditions: read-out: %inhibition

Point of comparison: `CO/N=C1\C[C@]2(C[C@@H]3C[C@@H](C/C=C(\C)C[C@@H](C)/C=C/C=C4\CO[C@@H]5[C@H](O)C(C)=C[C@@H](C(=O)O3)[C@]45O)O2)O[C@H](/C(C)=C/C(C)C)[C@H]1C` [Moxidectin], inhibition at 100 µM 7.63%. Against it:
- CCc1c(C)[nH]c2c1C(=O)C(CN1CCOCC1)CC2 (stereo not drawn) [Molindone hydrochloride] — lower, 0%
- CCOC(=O)[N-]c1c[n+](N2CCOCC2)no1 [Molsidomine] — lower, 0%
- C[C@@H]1C[C@H]2[C@@H]3CCC4=CC(=O)C=C[C@]4(C)[C@@]3(Cl)[C@@H](O)C[C@]2(C)[C@@]1(OC(=O)c1ccco1)C(=O)CCl [Mometasone furoate] — lower, 7.49%
- Oc1ccc(OCc2ccccc2)cc1 [Monobenzone] — lower, 0%
- N=C(N)NC(=N)N1CCOCC1 [Moroxydine HCl] — lower, 0.197%
- CCOc1cc(N)c(Cl)cc1C(=O)NCC1CN(Cc2ccc(F)cc2)CCO1 (stereo not drawn) [Mosapride] — lower, 0%
- CCCN(CCC)C(=O)C1=Cc2ccc(-c3ccc(C(=O)N4CCCC4)cc3)cc2N=C(N)C1 [Motolimod (VTX-2337)] — lower, 0%
- COc1nc(C)nc(Cl)c1NC1=NCCN1 [Moxonidine] — lower, 0%
- Cc1ccccc1C(=O)Nc1ccc(C(=O)N2CCCC(N(C)C)c3ccccc32)cc1 (stereo not drawn) [Mozavaptan] — higher, 21.9%
- FC(F)(F)c1ccc(/C=C/c2nc(COc3ccc(CCCCn4ccnn4)cc3)co2)cc1 [Mubritinib (TAK 165)] — lower, 0%
- COc1c(C)c2c(c(O)c1C/C=C(\C)CCC(=O)OCCN1CCOCC1)C(=O)OC2 [Mycophenolate Mofetil] — lower, 0%
- COc1c(C)c2c(c(O)c1C/C=C(\C)CCC(=O)O)C(=O)OC2 [Mycophenolic acid] — lower, 0%
- COc1ccc2cc(CCC(C)=O)ccc2c1 [Nabumetone] — lower, 0%
- CC1CCc2c(N3CCC(O)CC3)c(F)cc3c(=O)c(C(=O)O)cn1c23 (stereo not drawn) [Nadifloxacin] — lower, 0%
- N=C(N)Nc1ccc(C(=O)Oc2ccc3cc(C(=N)N)ccc3c2)cc1 [Nafamostat Mesylate] — lower, 0%
- CCOc1ccc2ccccc2c1C(=O)N[C@@H]1C(=O)N2[C@@H]1SC(C)(C)[C@@H]2C(=O)O [Nafcillin Sodium] — lower, 0%
- CCn1cc(C(=O)O)c(=O)c2ccc(C)nc21 [Nalidixic acid] — lower, 0%
- C=C1CC[C@@]2(O)[C@H]3Cc4ccc(O)c5c4[C@@]2(CCN3CC2CC2)[C@H]1O5 [Nalmefene HCl] — lower, 0%
- O=C1CC[C@@]2(O)[C@H]3Cc4ccc(O)c5c4[C@@]2(CCN3CC2CC2)[C@H]1O5 [Naltrexone HCl] — lower, 0%
- CC(=O)c1cc2c(o1)C(=O)c1ccccc1C2=O [Napabucasin] — lower, 6.24%
- c1ccc2c(CC3=NCCN3)cccc2c1 [Naphazoline HCl] — higher, 8.42%
- COc1ccc2cc([C@H](C)C(=O)O)ccc2c1 [Naproxen Sodium] — lower, 0%
- CNS(=O)(=O)CCc1ccc2[nH]cc(C3CCN(C)CC3)c2c1 [Naratriptan HCl] — lower, 0%
- C[C@@H]1C/C=C/C=C/C=C/C=C/[C@H](O[C@@H]2O[C@H](C)[C@@H](O)[C@H](N)[C@@H]2O)C[C@@H]2O[C@](O)(C[C@@H](O)C[C@H]3O[C@@H]3/C=C/C(=O)O1)C[C@H](O)[C@H]2C(=O)O [Natamycin] — lower, 0%
- CC(C)[C@H]1CC[C@H](C(=O)N[C@H](Cc2ccccc2)C(=O)O)CC1 [Nateglinide] — lower, 0%
- O[C@H](CNC[C@@H](O)[C@H]1CCc2cc(F)ccc2O1)[C@@H]1CCc2cc(F)ccc2O1 [Nebivolol HCl] — lower, 0%
- CCc1nn(CCCN2CCN(c3cccc(Cl)c3)CC2)c(=O)n1CCOc1ccccc1 [Nefazodone hydrochloride] — higher, 14%
- Cc1cccc(C)c1NC(=O)CN1CCCC1=O [Nefiracetam] — higher, 8.32%
- CN1CCOC(c2ccccc2)c2ccccc2C1 (stereo not drawn) [Nefopam HCl] — lower, 0%
- COc1nc(N)nc2c1ncn2[C@@H]1O[C@H](CO)[C@@H](O)[C@@H]1O [Nelarabine] — higher, 50.5%
- Cc1c(O)cccc1C(=O)N[C@@H](CSc1ccccc1)[C@H](O)CN1C[C@H]2CCCC[C@H]2C[C@H]1C(=O)NC(C)(C)C [Nelfinavir Mesylate] — lower, 0.155%
- NC[C@@H]1O[C@H](O[C@H]2[C@@H](O)[C@H](O[C@@H]3[C@@H](O)[C@H](N)C[C@H](N)[C@H]3O[C@H]3O[C@H](CN)[C@@H](O)[C@H](O)[C@H]3N)O[C@@H]2CO)[C@H](N)[C@@H](O)[C@@H]1O [Neomycin sulfate] — lower, 0%
- CN(C)C(=O)Oc1cccc([N+](C)(C)C)c1 [Neostigmine Bromide] — lower, 0%
- NC(=O)Cc1cccc(C(=O)c2ccccc2)c1N [Nepafenac] — lower, 0%
- CCOc1cc2ncc(C#N)c(Nc3ccc(OCc4ccccn4)c(Cl)c3)c2cc1NC(=O)/C=C/CN(C)C [Neratinib (HKI-272)] — lower, 4.82%
- CCCCCOc1ccccc1/C(=C\SC)n1ccnc1 [Neticonazole Hydrochloride] — lower, 0%
- CCN[C@@H]1C[C@H](N)[C@@H](O[C@H]2OC(CN)=CC[C@H]2N)[C@H](O)[C@H]1O[C@H]1OC[C@](C)(O)[C@H](NC)[C@H]1O [Netilmicin Sulfate] — lower, 0%
- Cc1ccccc1-c1cc(N2CCN(C)CC2)ncc1N(C)C(=O)C(C)(C)c1cc(C(F)(F)F)cc(C(F)(F)F)c1 [Netupitant] — lower, 6.47%
- Cc1ccnc2c1NC(=O)c1cccnc1N2C1CC1 [Nevirapine] — higher, 20.6%
- O=C(CCNNC(=O)c1ccncc1)NCc1ccccc1 [Nialamide] — higher, 25%
- COC(=O)C1=C(C)NC(C)=C(C(=O)OCCN(C)Cc2ccccc2)C1c1cccc([N+](=O)[O-])c1 (stereo not drawn) [Nicardipine] — lower, 0%
- O=C(NCCO[N+](=O)[O-])c1cccnc1 [Nicorandil] — higher, 15.7%
- NC(=O)c1cccnc1 [Nicotinamide (Vitamin B3)] — higher, 16%
- CN1CCC[C@H]1c1cccnc1 [Nicotine Ditartrate] — lower, 0%
- O=C(O)c1cccnc1 [Nicotinic Acid] — higher, 28.8%
- COC(=O)C1=C(C)NC(C)=C(C(=O)OC)C1c1ccccc1[N+](=O)[O-] [Nifedipine] — higher, 16%
- Cc1c(NC(=O)c2cccnc2)c(=O)n(-c2ccccc2)n1C [Nifenazone] — lower, 3.55%
- O=C(O)c1cccnc1Nc1cccc(C(F)(F)F)c1 [Niflumic acid] — higher, 11%
- O=C(N/N=C/c1ccc([N+](=O)[O-])o1)c1ccc(O)cc1 [Nifuroxazide] — lower, 0.953%
- CCN(CC)C(=O)c1cccnc1 [Nikethamide] — lower, 0%
- CC1(C)NC(=O)N(c2ccc([N+](=O)[O-])c(C(F)(F)F)c2)C1=O [Nilutamide] — lower, 3.89%
- COC(=O)C1=C(C#N)NC(C)=C(C(=O)OC(C)C)C1c1cccc([N+](=O)[O-])c1 (stereo not drawn) [Nilvadipine] — lower, 0%
- CS(=O)(=O)Nc1ccc([N+](=O)[O-])cc1Oc1ccccc1 [Nimesulide] — lower, 0%
- COCCOC(=O)C1=C(C)NC(C)=C(C(=O)OC(C)C)C1c1cccc([N+](=O)[O-])c1 (stereo not drawn) [Nimodipine] — higher, 21.8%
- Cc1ncc(CNC(=O)N(CCCl)N=O)c(N)n1 [Nimustine Hydrochloride] — lower, 0%
- COC(=O)C1=C(C)NC(C)=C(C(=O)OCC(C)C)C1c1ccccc1[N+](=O)[O-] (stereo not drawn) [Nisoldipine] — higher, 16.9%
- CC(=O)Oc1ccccc1C(=O)Nc1ncc([N+](=O)[O-])s1 [Nitazoxanide] — lower, 0%
- O=C1CCCC(=O)C1C(=O)c1ccc(C(F)(F)F)cc1[N+](=O)[O-] [Nitisinone] — lower, 2.19%
- CCOC(=O)C1=C(C)NC(C)=C(C(=O)OC)C1c1cccc([N+](=O)[O-])c1 (stereo not drawn) [Nitrendipine] — lower, 4.31%
- NC(=O)N/N=C/c1ccc([N+](=O)[O-])o1 [Nitrofural] — lower, 0%
- O=C1CN(/N=C/c2ccc([N+](=O)[O-])o2)C(=O)N1 [Nitrofurantoin] — lower, 4.04%
